Three compounds from US11661437B2, “Steroid derivative regulators, method for preparing the same, and uses thereof” (priority 2018, dated 2023) can be followed below.

One assay deals with ICR mice. Nature of the assay: In vivo pharmacodynamic test in the forced swimming model in mice. Particulars: for immobility time during the latter four minutes compared with that of the model group: 10 mg/kg p.o.; for Mean (immobility, %) / Mean (immobility, s): 10 mpk p.o.; for Mean (immobility, %): floating time percentage = 100*floating time/240 s; for Mean (immobility, s): latter four minutes of 6 min swim. Here is the method:
The antidepressant effect of the compound was evaluated by the forced swimming model in mice.
Male ICR mice (25-35 g) were adapted in the test environment for 3 days before the forced swimming test.
According to the test design, the mice were randomly grouped on the day before the test according to body weight, with 12 mice in each group. Before the test, the compounds of each example were administrated intragastrically according to the Tmax thereof in the brain in mice pharmacokinetic test as follows:
1) Model group (0.5% CMC-Na+1% Tween 80 solution, p.o., 10 mL/kg);
2) Compounds of Example 2, Example 5, Example 7, Example 18, Example 23, Example 26 and Example 50 (10 mg/kg, p.o., 10 mL/kg).
When being administrated, the compounds of each example were suspended in 0.5% CMC-Na-1% Tween 80 solution to the desired concentration.
0.5-1 hour after administration, ICR mice were placed in a forced swimming device (transparent glass drum (water depth 18 cm, water temperature 25-26° C.), one mouse per tank) and forced to swim for 6 minutes. The forced swimming device recorded the floating time of the ICR mice during the entire 6 minutes, and the data of the latter four minutes were used for data analysis. The mice were taken out immediately after the swimming test, wiped dry and put back in their original cages.
Note: The criterion for determining the immobility time is that the mouse stops struggling in water and floats, and there are only slight limb movements to keep the head floating on the water.
3.4 Data Analysis Floating time percentage=100*floating time/240 s.

A further assay has as its system CD-1 mice. Nature of the assay: In vivo pharmacodynamic test in the PTZ-induced epilepsy model in mice. Particulars: 3 mpk p.o., PTZ 120 mg/kg s.c., 30 min observation. Here is the method: The PTZ-induced epilepsy model in CD-1 mice was established, and the antiepileptic effect of the compounds of Example 5 and Example 23 was evaluated using this model.
30 male CD-1 mice were purchased from Beijing Vital River Laboratory Animal Technology Co. Ltd. The test animals were adapted at the animal room in the third building of Shanghai ChemPartner Co., Ltd for 7 days before the test. The average body weight of the animals on the test day was 32.2±0.2 grams. Feeding environment: 5 animals/cage, room temperature 23±2° C., 12/12 hours of light and dark cycle, free access to food and water.
1) Vehicle/PTZ: 0.5% CMC-Na+1% Tween-80 (10 ml/kg, p.o.), administrated 0.5 hr before the PTZ administration; PTZ ([…], s.c.), administrated before the test;
2) 3 mg/kg of the compounds of Examples/PTZ: the compounds of Example 5 and Example 23 (3 mg/kg, 10 ml/kg, p.o.), administrated 0.5 hr before the PTZ administration; PTZ ([…], s.c.), administrated before the test.
3) The compounds of Example 5 and Example 23 were administrated respectively 1 hour before the PTZ administration, or 0.5% CMC-NA+1% Tween-80, the compounds of Example 5 and Example 23 were administrated respectively 0.5 hour before the PTZ administration;
4) PTZ (120 mg/kg) was administrated subcutaneously before the test observation, and this time point was recorded as the observation start point;
6) The possible side effects induced by the drug after the administration were observed and recorded, which can be divided into four levels: • None: normal • Mild sedation • Moderate sedation • Severe sedation
The mice were randomly grouped, marked and weighed; 10 mice per group. The test compound was administrated orally at an administration volume of 10 mL/kg 30-60 minutes before the PTZ administration.
PTZ (120 mg/kg) was administrated subcutaneously before the test observation, and this time point was recorded as the observation start point; after the administration of PTZ, the animal was immediately placed in the observation box and observed for 30 minutes, and the followings were recorded: a) the incubation period of the first clonic seizure, b) the incubation period of the first generalized tonic seizure, c) the number of clonic seizures, d) the number of generalized tonic seizures, e) the time when the animal died.
All measurement data were expressed as Mean±SEM, and analysed with Prism 6.0 statistical software.

As for `C[C@@]1(O)CC[C@@]2(F)[C@H](CC[C@H]3[C@@H]4CC[C@H](C(=O)Cn5cc(C#N)cn5)[C@@]4(C)CC[C@@H]32)C1` [Example 2, 1-(2-((3R,5R,8S,9S,10R,13S,14S,17S)-10-Fluoro-3-hydroxy-3,13-dimethylhexadecahydro-1H-cyclopenta[a]phenanthren-17-yl)-2-oxoethyl)-1H-pyrazole-4-carbonitrile], in the assay on ICR mice, the “immobility time during the latter four minutes compared with that of the model group” value is reported as “significantly different”; the “Mean (immobility, %)” value stood at 36.39%; the “Mean (immobility, s)” value amounted to 87.34 s.

In the case of `C[C@@]1(O)CC[C@@]2(F)[C@H](CC[C@H]3[C@@H]4CC[C@H](C(=O)CNc5ccc(F)cc5)[C@@]4(C)CC[C@@H]32)C1` [Example 23, 1-((3R,5R,8S,9S,10R,13S,14S,17S)-10-Fluoro-3-hydroxy-3,13-dimethylhexadecahydro-1H-cyclopenta[a]phenanthren-17-yl)-2-((4-fluorophenyl)amino)ethan-1-one], in the assay on CD-1 mice, the “Incubation period of the clonic seizure Mean ± SEM” value came out at 366.5 ± 21.1 s, the “Incubation period of the generalized tonic seizure Mean” value was 1519.9 ± 117.9 s, the Mortality rate was determined as 40% and the “Number of clonic seizures Mean” value turned out to be 1.8 ± 0.2. For the same compound, in the assay on CD-1 mice, the “Number of generalized tonic seizures Mean” value stood at 0.4 ± 0.2 and the “Time when the animal died Mean” value came to 1527.7 ± 114.6 s. Moreover, in the assay on ICR mice, the “immobility time during the latter four minutes compared with that of the model group” value is “very significantly different”; the “Mean (immobility, %)” value came to 28.55%; the “Mean (immobility, s)” value came out at 68.51 s.

As to `C[C@@]1(O)CC[C@@]2(F)[C@H](CC[C@H]3[C@@H]4CC[C@H](C(=O)Cn5ccc(C(F)(F)F)n5)[C@@]4(C)CC[C@@H]32)C1` [Example 5, 1-((3R,5R,8S,9S,10R,13S,14S,17S)-10-Fluoro-3-hydroxy-3,13-dimethylhexadecahydro-1H-cyclopenta[a]phenanthren-17-yl)-2-(3-(trifluoromethyl)-1H-pyrazol-1-yl)ethan-1-one], in the assay with CD-1 mice, the “Incubation period of the clonic seizure Mean ± SEM” value is 644.5 ± 122.0 s, the “Incubation period of the generalized tonic seizure Mean” value is 1576.7 ± 108.8 s, the Mortality rate is on record as 40% and the “Number of clonic seizures Mean” value worked out at 1.8 ± 0.3. Moreover, in the assay on CD-1 mice, the “Number of generalized tonic seizures Mean” value is 0.4 ± 0.2 and the “Time when the animal died Mean” value came to 1623.0 ± 105.5 s. Also, in the assay on ICR mice, the “immobility time during the latter four minutes compared with that of the model group” value is “very significantly different”; the “Mean (immobility, %)” value is given as 27.11%; the “Mean (immobility, s)” value is 65.07 s.
